Results: patent US9221756B2, “Pyrrole derivatives” (priority 2011, dated 2015)
Read-outs that look alike come from different tables or passages of the source.

Legend:
[1] = biological target: pneumolysin (Streptococcus pneumoniae serotype 2, UniProt Q04IN8); assay: Inhibition of the haemolytic activity of pneumolysin (sheep erythrocytes); type: cell-based; details: class symbols of Table 1
[2] = Conversion of prodrug derivatives to active inhibitors in mouse plasma; type: in vitro ADME; details: 37° C., 10 μM start, prodrug remaining; for [ ] (μM) t0 min. Prodrug: 0 min; for [ ] (μM) t15 min. Prodrug: 15 min; for [ ] (μM) t30 min. Prodrug: 30 min; for [ ] (μM) t60 min. Prodrug: 60 min; for [ ] (μM) t120 min. Prodrug: 120 min
Experimental: The samples were then analysed by LC-MS/MS to obtain the amount of active compound appearing and prodrug derivative remaining over time. The mouse plasma assay system is considered to be a good model for human behaviour. Nevertheless data obtained in a human plasma assay system was obtained in some cases.
Prodrug derivatives were assessed in the mouse and human plasma stability assay at a concentration of 10 μM. Test compounds were diluted in DMSO to a final stock concentration of 10 mM. For the purpose of the assay, the stocks prepared were further diluted in DMSO to a concentration of 400 μM and […] were added to 195 μl of mouse or human plasma (pH 7.4) and then incubated at 37° C. The final concentration of DMSO in the plate was 2.5% (v/v). Reactions were terminated at 0, 15, 30, 60 and 120 min after incubation by adding 400 μl of acetonitrile containing 0.55 μM metoprolol and 1% (v/v) formic acid. The plate was then centrifuged at 3000 rpm, for 45 min, at 4° C. 80 μl of supernatant were transferred into a conical bottom 96 well glass coated plate. 40 μl of water were added prior to analysis for prodrug derivative and active species by LC-MS/MS. This assay was performed by a contract research organisation, Cyprotex Discovery Limited, UK, at the request of the inventors at Leicester.
(1) The active compound was quantified using a 6 point calibration curve prepared in deactivated mouse and human plasma. (2) The percentage of parent compound remaining at each time point relative to 0 min sample was calculated from LC-MS/MS peak area ratios (compound peak area/internal standard peak area). This percentage was then used to determine the concentration of the parent compound at each time point in reference to the starting concentration (10 μM) at time 0 min.

[3] = inhibition of pneumolysin-induced haemolysis of sheep erythrocytes, read-out: IC50
[4] = IC50, inhibition of pneumolysin-induced haemolysis of sheep erythrocytes

pneumolysin, sequence (Q04IN8 whole entry): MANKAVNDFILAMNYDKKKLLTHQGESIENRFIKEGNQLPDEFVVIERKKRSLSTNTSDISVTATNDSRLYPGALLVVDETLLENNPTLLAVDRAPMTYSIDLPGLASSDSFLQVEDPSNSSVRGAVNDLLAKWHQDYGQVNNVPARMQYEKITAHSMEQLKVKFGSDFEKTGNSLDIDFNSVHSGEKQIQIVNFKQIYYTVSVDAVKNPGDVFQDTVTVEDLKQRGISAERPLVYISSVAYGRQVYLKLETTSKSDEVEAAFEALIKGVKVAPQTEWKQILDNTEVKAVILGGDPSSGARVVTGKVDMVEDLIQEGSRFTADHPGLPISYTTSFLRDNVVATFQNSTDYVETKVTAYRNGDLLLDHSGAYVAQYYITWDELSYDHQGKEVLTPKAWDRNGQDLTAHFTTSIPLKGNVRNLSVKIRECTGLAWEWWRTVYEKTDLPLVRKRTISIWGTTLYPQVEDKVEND

With `CCOC(=O)c1c(O)c(OC(=O)N(C)C)c(C(=O)N(C)C)n1-c1ccc(OC)cc1` [UL1-066, ethyl 5-(dimethylcarbamoyl)-4-((dimethylcarbamoyl)oxy)-3-hydroxy-1-(4-methoxyphenyl)-1H-pyrrole-2-carboxylate] the IC50 [1, 3] was < 10 µM, the “[ ] (μM) t0 min. Prodrug” value [2] was 10 µM and the “[ ] (μM) t15 min. Prodrug” value [2] was 9.90 µM. The “[ ] (μM) t30 min. Prodrug” value [2] was 10.00 µM, the “[ ] (μM) t60 min. Prodrug” value [2] was 9.78 µM and the “[ ] (μM) t120 min. Prodrug” value [2] was 9.50 µM.

With `CCOC(=O)c1c(OP(=O)(OCC)OCC)c(OP(=O)(OCC)OCC)c(C(=O)N(C)C)n1-c1ccc(OC)cc1` [UL1-092, ethyl 3,4-bis((diethoxyphosphoryl)oxy)-5-(dimethylcarbamoyl)-1-(4-methoxyphenyl)-1H-pyrrole-2-carboxylate] the IC50 [1, 3] was > 60 µM, the “[ ] (μM) t0 min. Prodrug” value [2] was 10 µM and the “[ ] (μM) t15 min. Prodrug” value [2] was 5.12 µM. For the same molecule, the “[ ] (μM) t30 min. Prodrug” value [2] was 4.67 µM, the “[ ] (μM) t60 min. Prodrug” value [2] was 4.59 µM and the “[ ] (μM) t120 min. Prodrug” value [2] was 3.70 µM.

In the case of `CCOC(=O)c1c(OP(=O)(OCC)OCC)c(O)c(C(=O)N(C)C)n1-c1ccc(OC)cc1` [UL1-094, ethyl 3-((diethoxyphosphoryl)oxy)-5-(dimethylcarbamoyl)-4-hydroxy-1-(4-methoxyphenyl)-1H-pyrrole-2-carboxylate], the IC50 [1, 3] is reported as 20 to 60 µM, the “[ ] (μM) t0 min. Prodrug” value [2] is reported as 10 µM and the “[ ] (μM) t15 min. Prodrug” value [2] is reported as 9.99 µM. For the same molecule, the “[ ] (μM) t30 min. Prodrug” value [2] was 9.22 µM, the “[ ] (μM) t60 min. Prodrug” value [2] was 8.78 µM and the “[ ] (μM) t120 min. Prodrug” value [2] was 8.49 µM.

In the case of `CCOC(=O)c1c(O)c(OS(N)(=O)=O)c(C(=O)N(C)C)n1-c1ccc(OC)cc1` [UL1-069, ethyl 5-(dimethylcarbamoyl)-3-hydroxy-1-(4-methoxyphenyl)-4-(sulfamoyloxy)-1H-pyrrole-2-carboxylate], the IC50 [1, 4] is reported as < 10 µM, the “[ ] (μM) t0 min. Prodrug” value [2] is reported as 10 µM and the “[ ] (μM) t15 min. Prodrug” value [2] is reported as 9.90 µM. The “[ ] (μM) t30 min. Prodrug” value [2] was 9.70 µM, the “[ ] (μM) t60 min. Prodrug” value [2] was 9.60 µM and the “[ ] (μM) t120 min. Prodrug” value [2] was 9.90 µM.

For `CCOC(=O)c1c(OC(=O)N2CCC(N3CCCCC3)CC2)c(OC(=O)N2CCC(N3CCCCC3)CC2)c(C(=O)N(C)C)n1-c1ccc(OC)cc1` [UL1-065, 2-(dimethylcarbamoyl)-5-(ethoxycarbonyl)-1-(4-methoxyphenyl)-1H-pyrrole-3,4-diyl bis([1,4′-bipiperidine]-1′-carboxylate)], the IC50 [1, 3] was > 60 µM, the “[ ] (μM) t0 min. Prodrug” value [2] was 10 µM and the “[ ] (μM) t15 min. Prodrug” value [2] was 4.21 µM. For the same molecule, the “[ ] (μM) t30 min. Prodrug” value [2] was 3.72 µM, the “[ ] (μM) t60 min. Prodrug” value [2] was 2.57 µM and the “[ ] (μM) t120 min. Prodrug” value [2] was 1.14 µM.

In the case of `CCOC(=O)c1c(O)c(OC(=O)N2CCC(N3CCCCC3)CC2)c(C(=O)N(C)C)n1-c1ccc(OC)cc1` [UL1-071, 2-(dimethylcarbamoyl)-5-(ethoxycarbonyl)-4-hydroxy-1-(4-methoxyphenyl)-1H-pyrrol-3-yl [1,4′-bipiperidine]-1′-carboxylate], the IC50 [1, 3] is reported as 20 to 60 µM, the “[ ] (μM) t0 min. Prodrug” value [2] is reported as 10 µM and the “[ ] (μM) t15 min. Prodrug” value [2] is reported as 9.50 µM. The “[ ] (μM) t30 min. Prodrug” value [2] was 9.00 µM, the “[ ] (μM) t60 min. Prodrug” value [2] was 8.72 µM and the “[ ] (μM) t120 min. Prodrug” value [2] was 7.39 µM.

With `CCOC(=O)c1c(OC(=O)C(C)C)c(OC(=O)C(C)C)c(C(=O)N(C)C)n1-c1ccc(OC)cc1` [UL1-067, 2-(dimethylcarbamoyl)-5-(ethoxycarbonyl)-1-(4-methoxyphenyl)-1H-pyrrole-3,4-diyl bis(2-methylpropanoate)] the IC50 [1, 4] was 20 to 60 µM, the “[ ] (μM) t0 min. Prodrug” value [2] was 10 µM and the “[ ] (μM) t15 min. Prodrug” value [2] was 0 µM. For the same molecule, the “[ ] (μM) t30 min. Prodrug” value [2] was 0 µM, the “[ ] (μM) t60 min. Prodrug” value [2] was 0 µM and the “[ ] (μM) t120 min. Prodrug” value [2] was 0 µM.

For `CCOC(=O)c1c(OC(=O)C(C)(C)C)c(OC(=O)C(C)(C)C)c(C(=O)N(C)C)n1-c1ccc(OC)cc1` [UL1-068, 2-(dimethylcarbamoyl)-5-(ethoxycarbonyl)-1-(4-methoxyphenyl)-1H-pyrrole-3,4-diyl bis(2,2-dimethylpropanoate)], the IC50 ([1]; inhibition of pneumolysin-induced haemolysis of sheep erythrocytes) was > 60 µM, the “[ ] (μM) t0 min. Prodrug” value [2] was 10 µM and the “[ ] (μM) t15 min. Prodrug” value [2] was 3.02 µM. For the same molecule, the “[ ] (μM) t30 min. Prodrug” value [2] was 1.00 µM, the “[ ] (μM) t60 min. Prodrug” value [2] was 0.136 µM and the “[ ] (μM) t120 min. Prodrug” value [2] was 0 µM.

For `CCOC(=O)c1c(OC(=O)CCOCCOC)c(OC(=O)CCOCCOC)c(C(=O)N(C)C)n1-c1ccc(OC)cc1` [UL1-105, 2-(dimethylcarbamoyl)-5-(ethoxycarbonyl)-1-(4-methoxyphenyl)-1H-pyrrole-3,4-diyl bis(3-(2-methoxyethoxy)propanoate)], the IC50 [1, 4] was < 10 µM, the “[ ] (μM) t0 min. Prodrug” value [2] was 10 µM and the “[ ] (μM) t15 min. Prodrug” value [2] was 0 µM. For the same molecule, the “[ ] (μM) t30 min. Prodrug” value [2] was 0 µM, the “[ ] (μM) t60 min. Prodrug” value [2] was 0 µM and the “[ ] (μM) t120 min. Prodrug” value [2] was 0 µM.

In the case of `CCOC(=O)c1c(OC(=O)N(C)C)c(OC(=O)N(C)C)c(C(=O)N(C)C)n1-c1ccc(OC)cc1` [UL1-063, ethyl 5-(dimethylcarbamoyl)-3,4-bis((dimethylcarbamoyl)oxy)-1-(4-methoxyphenyl)-1H-pyrrole-2-carboxylate], the IC50 [1, 3] is reported as > 60 µM, the “[ ] (μM) t0 min. Prodrug” value [2] is reported as 10 µM and the “[ ] (μM) t15 min. Prodrug” value [2] is reported as 10 µM. The “[ ] (μM) t30 min. Prodrug” value [2] was 9.20 µM, the “[ ] (μM) t60 min. Prodrug” value [2] was 9.40 µM and the “[ ] (μM) t120 min. Prodrug” value [2] was 8.50 µM.

In the case of `CCOC(=O)c1c(OC(=O)N2CCN(C)CC2)c(OC(=O)N2CCN(C)CC2)c(C(=O)N(C)C)n1-c1ccc(OC)cc1` [UL1-064, 2-(dimethylcarbamoyl)-5-(ethoxycarbonyl)-1-(4-methoxyphenyl)-1H-pyrrole-3,4-diyl bis(4-methylpiperazine-1-carboxylate)], the IC50 [1, 3] is reported as > 60 µM, the “[ ] (μM) t0 min. Prodrug” value [2] is reported as 10 µM and the “[ ] (μM) t15 min. Prodrug” value [2] is reported as 3.10 µM. For the same molecule, the “[ ] (μM) t30 min. Prodrug” value [2] was 7.00 µM, the “[ ] (μM) t60 min. Prodrug” value [2] was 5.00 µM and the “[ ] (μM) t120 min. Prodrug” value [2] was 2.20 µM.

In the case of `CCOC(=O)c1c(OC(C)=O)c(OC(C)=O)c(C(=O)N(C)C)n1-c1ccc(OC)cc1` [UL1-044, 2-(dimethylcarbamoyl)-5-(ethoxycarbonyl)-1-(4-methoxyphenyl)-1H-pyrrole-3,4-diyl diacetate], the IC50 [1, 4] is reported as < 10 µM, the “[ ] (μM) t0 min. Prodrug” value [2] is reported as 10 µM and the “[ ] (μM) t15 min. Prodrug” value [2] is reported as 0 µM. The “[ ] (μM) t30 min. Prodrug” value [2] was 0 µM, the “[ ] (μM) t60 min. Prodrug” value [2] was 0 µM and the “[ ] (μM) t120 min. Prodrug” value [2] was 0 µM.

With `CCOC(=O)c1c(OC(=O)C(C)(C)COCCCOP(=O)(O)O)c(OC(=O)C(C)(C)COCCCOP(=O)(O)O)c(C(=O)N(C)C)n1-c1ccc(OC)cc1` [UL1-118, 2-(dimethylcarbamoyl)-5-(ethoxycarbonyl)-1-(4-methoxyphenyl)-1H-pyrrole-3,4-diyl bis(2,2-dimethyl-3-(3-(phosphonooxy)propoxy)propanoate)] the IC50 [1, 4] was < 10 µM, the “[ ] (μM) t0 min. Prodrug” value [2] was 10 µM and the “[ ] (μM) t15 min. Prodrug” value [2] was 6.04 µM. For the same molecule, the “[ ] (μM) t30 min. Prodrug” value [2] was 4.00 µM, the “[ ] (μM) t60 min. Prodrug” value [2] was 1.68 µM and the “[ ] (μM) t120 min. Prodrug” value [2] was 0.23 µM.
